Assay results taken from patent EP2906547B2, “COSMETIC COMPOSITIONS CONTAINING AT LEAST ONE HYDROTROPE AND AT LEAST ONE ACTIVE COMPOUND” (priority 2012, dated 2014).
In brackets after ≈: the same amount, converted by molar mass. Read-outs that look alike come from different tables or passages of the source. One block for each compound: values may come before it.

What was measured:
[1] = Solubility of adenosine in water with and without hydrotropes
[2] = Stability of solutions on dilution in water
[3] = Solubility of baicalin in water as a function of pH; assay type: physicochemical; settings: for solubility: water
physchem = assay: physchem
Description: Another aspect of the text discloses a method for preparing the aqueous compositions comprising including in the composition at least one phenolic compound and at least one hydrotrope in an amount sufficient to solubilize the phenolic compound, such as a polyphenol, in water. A hydrotrope solution is prepared by completely dissolving one or more hydrotropic agents into water. At least one phenolic compound is then added in and mixed using a stirring bar or any other mixer. […] Everything is prepared at room temperature to keep the stability of the phenolic compound(s).
Everything is prepared at room temperature to keep the stability of the phenolic compounds.

[4] = 5% nicotinamide and 5% caffeine, room temperature
[5] = 5% nicotinamide, 5% caffeine, water

Solubility in water with hydrotropes [1, 4]: >3 %(w/w) | solubility thermodynamic ([1]; water): < 5000 µg/mL
SMILES: Nc1ncnc2c1ncn2[C@@H]1O[C@H](CO)[C@@H](O)[C@H]1O [Adenosine]

SMILES: O=C(O)[C@H]1O[C@@H](Oc2cc3oc(-c4ccccc4)cc(=O)c3c(O)c2O)[C@H](O)[C@@H](O)[C@@H]1O [Baicalin]
stability of dilution in water ([2]; hydrotrope solution diluted in water): still stable | stability of dilution in water ([2]; solution in organic solvent (e.g. PEG-4) diluted in water, crystallization or precipitation occurs): not stable any more | pH at which degradation happens ([3]; in water): > 5 | solubility ([3]; pH 3, water, in water, pH 3, read-out: Solubility): 16 µg/mL (≈ 35.8 µM) | solubility ([3]; pH 3.5, water, in water, pH 3.5, read-out: Solubility): 21 µg/mL (≈ 47 µM) | solubility ([3]; pH 4, water, in water, pH 4, read-out: Solubility): 40 µg/mL (≈ 89.6 µM) | solubility ([3]; pH 4.5, water, in water, pH 4.5, read-out: Solubility): 84 µg/mL (≈ 188 µM) | solubility ([3]; pH 4.5, water, without hydrotrope, natural pH -4.5, read-out: solubility in water): < 100 µg/mL | solubility ([3]; pH 5, water, in water, pH 5, read-out: Solubility): 350 µg/mL (≈ 784 µM) | water solubility (physchem; 2% caffeine in water): 0.11% | Solubility in water with hydrotropes (physchem; [5]): >1 % (w/w) | amount solubilized in water (physchem; [5]): approximately 1% | solubility thermodynamic (physchem; water): < 100 µg/mL

Solubility in water with hydrotropes (physchem; [4]): >0.01 % (w/w) | solubility thermodynamic (physchem; water): < 10 µg/mL
SMILES: O=c1oc2c(O)c(O)cc3c(=O)oc4c(O)c(O)cc1c4c23 [Ellagic acid]

Solubility in water without hydrotropes (physchem; water): <0.05 % (w/w)
SMILES: COc1ccc([C@@H]2CC(=O)c3c(O)cc(O[C@@H]4O[C@H](CO)[C@@H](O)[C@H](O)[C@H]4O[C@@H]4O[C@@H](C)[C@H](O)[C@@H](O)[C@H]4O)cc3O2)cc1O [Neohesperidin]

Solubility in water with hydrotropes (physchem; [5]): >0.75 % (w/w) | solubility thermodynamic (physchem; water): < 50 µg/mL
SMILES: Oc1ccc(C=Cc2cc(O)cc(O)c2)cc1 [Resveratrol]

Solubility in water with hydrotropes (physchem; [4]): >1 % (w/w) | solubility thermodynamic (physchem; water): < 1000 µg/mL
SMILES: O=C1c2c(O)cc(O)cc2O[C@H](c2ccc(O)c(O)c2)[C@H]1O [Taxifolin]
